Assay results published in PMC10029208, “Isolation and functional verification of an aspartate aminotransferase gene from Neoporphyra haitanensis” (BMC Plant Biology, 2023).
Like-named read-outs stand apart in the source and are kept apart here.

How the values were obtained:
NhAAT [1] = tested on: T1, NhAAT; assay: coupled malate dehydrogenase assay, NADH decrease at […] nm, double reciprocal plot; format: biochemical, Neoporphyra haitanensis; settings: reverse reaction; co-substrate 20 mM α-ketoglutarate; 50 µM PLP; 0.1 M sodium phosphate; optimal conditions pH 7.5, 45 °C; L-aspartic acid 0-100 mM
T1 construct: gene AAT; E. coli BL21 pLysS; homodimer predicted; catalytic Lys267; primers imply N-terminus MTTTAMAP and C-terminus ETVVKQE

NhAAT [2] = tested on: T2, NhAAT; settings: forward reaction; co-substrate 20 mM oxaloacetic acid; 50 µM PLP; 0.1 M sodium phosphate; optimal conditions pH 7.5, 45 °C; L-glutamic acid 0-100 mM
T2 construct: gene AAT

Km (NhAAT [1]) [mM] | Km (NhAAT [2]) [mM] | SMILES
6.16 |  | N[C@@H](CC(=O)O)C(=O)O [L-aspartic acid]
 | 5.67 | N[C@@H](CCC(=O)O)C(=O)O [L-glutamic acid]
